These results are taken from ChEMBL document CHEMBL5465560, “Selectivity Literature for EUbOPEN Chemogenomic Library” (2024).

The target in experiment [1] is Receptor-type tyrosine-protein kinase FLT3 (Homo sapiens) (UniProt P36888). The experiment is described as follows: Selectivity interaction (Ambit KINOMEscan and KiNATiv profiling in Jurkat cells) EUB0000090b FLT3. Type of experiment: cell-based. As to conditions: at 1 µM.
Experiment [2] deals with T1, Serine/threonine-protein kinase 17B (Homo sapiens) (UniProt O94768).
T1 sequence (whole entry): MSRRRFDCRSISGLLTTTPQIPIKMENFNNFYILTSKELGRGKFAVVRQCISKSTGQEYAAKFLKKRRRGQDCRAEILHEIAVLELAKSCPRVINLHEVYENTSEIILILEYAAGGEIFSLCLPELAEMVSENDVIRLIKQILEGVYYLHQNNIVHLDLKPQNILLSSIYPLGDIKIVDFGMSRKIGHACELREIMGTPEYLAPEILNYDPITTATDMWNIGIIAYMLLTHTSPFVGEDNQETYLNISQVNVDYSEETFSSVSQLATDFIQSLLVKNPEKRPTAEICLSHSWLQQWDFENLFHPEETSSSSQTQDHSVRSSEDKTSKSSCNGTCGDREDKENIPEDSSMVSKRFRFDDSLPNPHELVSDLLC
Kind of experiment: Selectivity interaction (Ambit KINOMEscan and KiNATiv profiling in Jurkat cells) EUB0000090b STK17B. As to conditions: at 1 µM. Type of experiment: cell-based.

For experiment [3], the target named is Glycogen synthase kinase-3 alpha (Homo sapiens, UniProt P49840). The experiment is described as follows: Selectivity interaction (SelectScreen profiling (Invitrogen)) EUB0000607a GSK3A. As to conditions: at 2 µM.
In experiment [4] the target is T2, Serine/threonine-protein kinase Chk1 (Homo sapiens) (UniProt O14757).
T2 sequence (whole entry): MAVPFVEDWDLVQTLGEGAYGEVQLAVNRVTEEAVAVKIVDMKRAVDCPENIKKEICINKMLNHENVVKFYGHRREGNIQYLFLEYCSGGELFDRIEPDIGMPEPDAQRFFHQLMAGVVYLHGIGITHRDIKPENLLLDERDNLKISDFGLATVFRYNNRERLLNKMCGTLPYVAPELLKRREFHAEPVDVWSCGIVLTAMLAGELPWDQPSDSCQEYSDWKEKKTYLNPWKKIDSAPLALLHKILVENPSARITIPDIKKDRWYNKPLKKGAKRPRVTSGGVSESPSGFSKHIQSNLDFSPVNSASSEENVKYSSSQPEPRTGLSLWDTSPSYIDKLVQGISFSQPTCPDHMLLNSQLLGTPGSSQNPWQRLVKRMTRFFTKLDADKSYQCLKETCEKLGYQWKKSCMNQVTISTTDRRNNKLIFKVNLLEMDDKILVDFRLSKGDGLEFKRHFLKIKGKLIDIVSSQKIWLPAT
The experiment is described as follows: Selectivity interaction (SelectScreen profiling (Invitrogen)) EUB0000607a CHEK1. As to conditions: at 2 µM.

In experiment [5] the target is Casein kinase II subunit alpha (Homo sapiens, UniProt P68400). Kind of experiment: Selectivity interaction (SelectScreen profiling (Invitrogen)) EUB0000607a CSNK2A1. As to conditions: at 2 µM.
For experiment [6], the target named is Ephrin type-A receptor 2 (Homo sapiens) (UniProt P29317). Kind of experiment: Selectivity interaction (KinomeScan (DiscoverX)) EUB0000666a EPHA2. As to conditions: at 10 µM.
Experiment [7] deals with Tyrosine-protein kinase JAK1 (Homo sapiens, UniProt P23458). Kind of experiment: Selectivity interaction (KinomeScan (DiscoverX)) EUB0000666a JAK1. As to conditions: at 10 µM.
For experiment [8], the target named is Histone-lysine N-methyltransferase SUV39H2 (Homo sapiens) (UniProt Q9H5I1). As to conditions: at 10 µM.
The target in experiment [9] is Cyclin-dependent kinase 18 (Homo sapiens) (UniProt Q07002). The experiment is described as follows: Selectivity interaction (KinomeScan (DiscoverX)) EUB0001079a CDK18. As to conditions: at 1 µM.
Experiment [10] addresses BMP-2-inducible protein kinase (Homo sapiens) (UniProt Q9NSY1). Kind of experiment: Selectivity interaction (KinomeScan (DiscoverX)) EUB0001619a BMP2K. As to conditions: at 1 µM.
The target in experiment [11] is T3, Serine/threonine-protein kinase Nek3 (Homo sapiens) (UniProt P51956).
T3 sequence (whole entry): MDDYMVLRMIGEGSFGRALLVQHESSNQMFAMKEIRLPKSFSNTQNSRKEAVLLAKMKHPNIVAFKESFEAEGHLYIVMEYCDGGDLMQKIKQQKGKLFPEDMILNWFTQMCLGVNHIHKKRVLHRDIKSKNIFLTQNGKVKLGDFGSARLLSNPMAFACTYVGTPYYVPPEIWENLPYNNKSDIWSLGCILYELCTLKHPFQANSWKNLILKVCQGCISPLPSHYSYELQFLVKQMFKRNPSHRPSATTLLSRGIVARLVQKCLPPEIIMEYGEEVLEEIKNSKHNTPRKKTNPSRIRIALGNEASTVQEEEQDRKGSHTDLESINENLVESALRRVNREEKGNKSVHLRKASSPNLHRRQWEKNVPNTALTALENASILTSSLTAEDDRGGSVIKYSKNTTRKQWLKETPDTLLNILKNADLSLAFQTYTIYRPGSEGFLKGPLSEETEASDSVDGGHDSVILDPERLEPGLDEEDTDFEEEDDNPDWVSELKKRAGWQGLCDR
Kind of experiment: Selectivity interaction (KinomeScan (DiscoverX)) EUB0001619a NEK3. As to conditions: at 1 µM.

Experiment [12] has as its target Tyrosine-protein kinase Fyn (Homo sapiens) (UniProt P06241). The experiment is described as follows: Selectivity interaction (ActivX KiNativ screen (kinase selectivity in THP-1 cell lysates)) EUB0000639a FYN. Type of experiment: subcellular. As to conditions: lysate.
Experiment [13] has as its target Proto-oncogene tyrosine-protein kinase ROS (Homo sapiens) (UniProt P08922). As to conditions: at 10 µM.
For experiment [14], the target named is Proto-oncogene tyrosine-protein kinase Src (Homo sapiens, UniProt P12931). The experiment is described as follows: Selectivity interaction (KinomeScan (DiscoverX)) EUB0000045b SRC.
Experiment [15] addresses Ribosomal protein S6 kinase alpha-6 (Homo sapiens, UniProt Q9UK32). Kind of experiment: Selectivity interaction (KinomeScan (DiscoverX)) EUB0000618a RPS6KA6. As to conditions: at 10 µM.
Experiment [16] has as its target Cyclin-dependent kinase 17 (Homo sapiens) (UniProt Q00537). The experiment is described as follows: Selectivity interaction (KinomeScan (DiscoverX)) EUB0000618a CDK17. As to conditions: at 10 µM.
The target of experiment [17] is MAP kinase-activated protein kinase 2 (Homo sapiens, UniProt P49137). As to conditions: at 10 µM.

Bounds are passed on as bounds.

Chain of Tyrosine-protein kinase Fyn (Homo sapiens) (P06241 2-537 limits assumed): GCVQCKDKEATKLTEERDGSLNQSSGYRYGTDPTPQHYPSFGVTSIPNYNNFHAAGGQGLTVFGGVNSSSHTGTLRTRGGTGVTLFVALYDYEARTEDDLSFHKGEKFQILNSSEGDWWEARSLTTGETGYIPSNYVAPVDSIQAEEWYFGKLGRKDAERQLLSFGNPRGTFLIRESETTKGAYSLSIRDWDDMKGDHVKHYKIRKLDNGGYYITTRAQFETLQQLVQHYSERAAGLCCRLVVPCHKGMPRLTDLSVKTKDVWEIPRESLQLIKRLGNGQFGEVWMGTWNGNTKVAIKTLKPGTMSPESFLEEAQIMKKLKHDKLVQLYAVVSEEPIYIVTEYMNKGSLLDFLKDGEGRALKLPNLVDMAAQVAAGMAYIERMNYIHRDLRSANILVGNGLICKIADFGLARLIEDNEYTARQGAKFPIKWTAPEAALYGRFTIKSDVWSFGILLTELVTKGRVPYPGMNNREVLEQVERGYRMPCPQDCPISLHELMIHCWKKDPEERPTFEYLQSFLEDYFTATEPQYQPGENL
Chain of Proto-oncogene tyrosine-protein kinase Src (P12931 2-536 limits assumed): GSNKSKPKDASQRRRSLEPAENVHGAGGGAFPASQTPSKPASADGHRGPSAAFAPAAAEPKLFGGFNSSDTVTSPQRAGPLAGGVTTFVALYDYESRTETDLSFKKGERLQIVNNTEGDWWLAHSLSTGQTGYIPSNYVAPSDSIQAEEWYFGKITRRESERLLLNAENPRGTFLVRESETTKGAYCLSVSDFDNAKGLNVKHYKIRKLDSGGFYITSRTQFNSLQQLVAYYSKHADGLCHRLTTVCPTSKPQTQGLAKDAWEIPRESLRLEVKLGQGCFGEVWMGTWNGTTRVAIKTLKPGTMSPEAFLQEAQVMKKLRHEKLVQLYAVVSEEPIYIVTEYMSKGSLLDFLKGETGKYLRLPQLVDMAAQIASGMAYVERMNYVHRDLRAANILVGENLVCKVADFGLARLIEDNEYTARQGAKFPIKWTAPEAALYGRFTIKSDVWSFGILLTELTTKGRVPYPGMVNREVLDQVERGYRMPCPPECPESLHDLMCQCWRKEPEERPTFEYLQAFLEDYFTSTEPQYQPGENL
Chain of Casein kinase II subunit alpha (P68400 whole entry, looked up): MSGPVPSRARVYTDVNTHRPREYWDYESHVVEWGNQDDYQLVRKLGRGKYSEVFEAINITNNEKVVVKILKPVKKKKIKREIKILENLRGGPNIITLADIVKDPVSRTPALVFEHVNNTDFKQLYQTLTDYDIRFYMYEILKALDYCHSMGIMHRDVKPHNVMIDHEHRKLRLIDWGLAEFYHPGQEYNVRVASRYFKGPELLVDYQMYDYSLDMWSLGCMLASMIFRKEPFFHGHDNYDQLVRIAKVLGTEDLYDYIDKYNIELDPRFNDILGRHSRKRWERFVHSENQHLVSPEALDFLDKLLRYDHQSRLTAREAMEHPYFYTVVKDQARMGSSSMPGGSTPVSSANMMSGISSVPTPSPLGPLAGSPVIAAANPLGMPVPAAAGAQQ
Chain of Glycogen synthase kinase-3 alpha (P49840 2-483 limits assumed): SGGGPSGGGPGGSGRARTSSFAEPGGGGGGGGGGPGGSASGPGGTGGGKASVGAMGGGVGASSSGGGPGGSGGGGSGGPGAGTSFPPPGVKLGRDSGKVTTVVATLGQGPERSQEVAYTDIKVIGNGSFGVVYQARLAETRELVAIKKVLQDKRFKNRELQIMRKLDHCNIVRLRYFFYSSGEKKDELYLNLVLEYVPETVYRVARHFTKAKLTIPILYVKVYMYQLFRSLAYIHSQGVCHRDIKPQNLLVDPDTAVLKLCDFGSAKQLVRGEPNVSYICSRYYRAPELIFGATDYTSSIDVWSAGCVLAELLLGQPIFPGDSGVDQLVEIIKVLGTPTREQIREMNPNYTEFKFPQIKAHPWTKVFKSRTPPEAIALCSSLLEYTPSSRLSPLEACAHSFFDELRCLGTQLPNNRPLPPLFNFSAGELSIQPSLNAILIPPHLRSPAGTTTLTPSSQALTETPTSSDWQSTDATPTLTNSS
Chain of Cyclin-dependent kinase 17 (Homo sapiens) (Q00537 whole entry, looked up): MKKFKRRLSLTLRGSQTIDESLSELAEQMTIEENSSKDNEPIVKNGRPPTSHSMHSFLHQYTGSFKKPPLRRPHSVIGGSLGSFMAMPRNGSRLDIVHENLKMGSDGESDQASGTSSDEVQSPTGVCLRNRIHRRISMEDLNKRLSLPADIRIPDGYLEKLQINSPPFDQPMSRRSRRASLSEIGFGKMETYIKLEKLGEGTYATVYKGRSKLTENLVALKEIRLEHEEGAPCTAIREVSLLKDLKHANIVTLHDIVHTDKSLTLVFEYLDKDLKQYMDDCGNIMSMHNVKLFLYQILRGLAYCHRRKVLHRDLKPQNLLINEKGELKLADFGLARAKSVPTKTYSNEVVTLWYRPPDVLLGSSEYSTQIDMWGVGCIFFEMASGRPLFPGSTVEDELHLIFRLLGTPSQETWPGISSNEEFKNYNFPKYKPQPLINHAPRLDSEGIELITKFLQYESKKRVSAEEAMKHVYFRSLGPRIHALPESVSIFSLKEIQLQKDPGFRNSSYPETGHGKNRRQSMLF
Chain of Proto-oncogene tyrosine-protein kinase ROS (Homo sapiens) (P08922 whole entry): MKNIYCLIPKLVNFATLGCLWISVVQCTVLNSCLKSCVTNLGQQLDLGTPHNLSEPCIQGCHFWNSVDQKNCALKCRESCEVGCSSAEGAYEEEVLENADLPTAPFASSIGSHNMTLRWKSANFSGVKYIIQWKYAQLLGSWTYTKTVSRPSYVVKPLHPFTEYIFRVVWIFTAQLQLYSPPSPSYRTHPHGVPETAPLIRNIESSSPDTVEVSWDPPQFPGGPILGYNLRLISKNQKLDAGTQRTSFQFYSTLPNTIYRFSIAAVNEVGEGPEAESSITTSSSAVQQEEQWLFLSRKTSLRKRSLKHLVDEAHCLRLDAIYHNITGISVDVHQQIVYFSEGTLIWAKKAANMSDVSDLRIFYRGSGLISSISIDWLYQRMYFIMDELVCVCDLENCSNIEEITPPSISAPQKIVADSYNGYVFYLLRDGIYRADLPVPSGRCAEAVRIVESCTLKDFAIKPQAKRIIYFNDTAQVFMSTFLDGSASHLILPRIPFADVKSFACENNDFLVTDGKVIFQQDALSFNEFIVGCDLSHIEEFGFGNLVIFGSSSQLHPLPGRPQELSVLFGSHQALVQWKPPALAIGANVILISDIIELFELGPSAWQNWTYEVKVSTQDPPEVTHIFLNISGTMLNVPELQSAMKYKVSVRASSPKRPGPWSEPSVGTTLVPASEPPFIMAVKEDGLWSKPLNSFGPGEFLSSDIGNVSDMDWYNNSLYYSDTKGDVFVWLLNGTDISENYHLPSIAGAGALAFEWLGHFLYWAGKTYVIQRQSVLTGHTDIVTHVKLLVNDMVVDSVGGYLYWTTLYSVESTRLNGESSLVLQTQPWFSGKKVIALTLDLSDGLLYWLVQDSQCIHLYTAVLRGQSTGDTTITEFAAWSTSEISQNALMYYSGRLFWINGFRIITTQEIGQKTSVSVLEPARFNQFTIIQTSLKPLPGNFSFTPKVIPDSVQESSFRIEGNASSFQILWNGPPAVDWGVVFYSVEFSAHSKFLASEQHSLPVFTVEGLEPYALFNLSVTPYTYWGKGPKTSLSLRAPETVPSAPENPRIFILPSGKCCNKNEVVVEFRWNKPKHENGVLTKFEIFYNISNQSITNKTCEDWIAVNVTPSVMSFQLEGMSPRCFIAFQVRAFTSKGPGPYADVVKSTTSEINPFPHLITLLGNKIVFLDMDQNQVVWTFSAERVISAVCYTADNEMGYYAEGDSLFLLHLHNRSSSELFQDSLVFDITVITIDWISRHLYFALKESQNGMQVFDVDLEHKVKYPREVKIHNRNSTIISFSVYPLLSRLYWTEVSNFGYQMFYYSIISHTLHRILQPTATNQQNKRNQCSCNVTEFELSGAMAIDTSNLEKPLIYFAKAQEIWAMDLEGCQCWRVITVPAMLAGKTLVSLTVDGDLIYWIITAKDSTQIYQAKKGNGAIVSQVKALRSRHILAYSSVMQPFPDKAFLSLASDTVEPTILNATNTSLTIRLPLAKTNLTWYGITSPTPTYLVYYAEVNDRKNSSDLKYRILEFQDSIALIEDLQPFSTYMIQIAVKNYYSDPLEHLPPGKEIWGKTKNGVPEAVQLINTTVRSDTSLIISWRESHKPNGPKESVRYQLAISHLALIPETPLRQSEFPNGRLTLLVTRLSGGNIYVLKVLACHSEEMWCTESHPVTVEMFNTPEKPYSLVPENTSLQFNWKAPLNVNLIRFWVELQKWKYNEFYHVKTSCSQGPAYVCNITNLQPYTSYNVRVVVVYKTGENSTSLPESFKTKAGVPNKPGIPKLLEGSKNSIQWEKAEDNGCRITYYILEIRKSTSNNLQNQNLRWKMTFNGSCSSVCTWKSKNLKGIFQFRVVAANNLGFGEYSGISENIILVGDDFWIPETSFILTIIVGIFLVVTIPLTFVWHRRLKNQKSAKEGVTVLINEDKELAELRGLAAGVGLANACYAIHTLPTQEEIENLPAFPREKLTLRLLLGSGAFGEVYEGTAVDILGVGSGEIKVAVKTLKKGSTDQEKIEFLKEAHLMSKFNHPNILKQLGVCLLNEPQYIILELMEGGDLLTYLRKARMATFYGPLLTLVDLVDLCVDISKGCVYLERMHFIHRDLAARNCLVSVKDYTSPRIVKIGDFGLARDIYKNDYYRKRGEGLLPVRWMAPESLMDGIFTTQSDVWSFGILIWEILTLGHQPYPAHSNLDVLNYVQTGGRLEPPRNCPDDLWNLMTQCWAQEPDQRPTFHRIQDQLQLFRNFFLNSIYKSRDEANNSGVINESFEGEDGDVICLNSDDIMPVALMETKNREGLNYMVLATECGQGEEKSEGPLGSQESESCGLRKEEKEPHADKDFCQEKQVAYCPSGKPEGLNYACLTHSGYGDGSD

Turning to `CN(C)C/C=C/C(=O)Nc1ccc(C(=O)N2CCCC(Nc3ncc(Cl)c(-c4c[nH]c5ccccc45)n3)C2)cc1` (configuration not stated), the values for the % of control in experiment [1] and in experiment [2] were 95% and 81%, respectively.
As for `CNC(=O)Nc1ccc(-c2nc(N3CC4CCC(C3)O4)c3cnn(C4CCC5(CC4)OCCO5)c3n2)cc1`, the % of inhibition in experiment [3] was -1%; in [4], 9%; in experiment [5], 0%.
For the molecule `O=C(NOC[C@H](O)CO)c1ccc(F)c(F)c1Nc1ccc(I)cc1F`, the % of control in experiment [6] came out at 88%; in experiment [7] it was 78%.
`CNCCN1CCC(c2cc(CN(C)C(=O)c3cccc(Oc4ccccc4)c3)ccn2)CC1`: the % activity in experiment [8] was above 90%.
Take `Nc1cnc(N2CCc3cc(S(=O)(=O)Nc4c(F)cc(Cl)cc4F)cc(N4CCCC4=O)c32)nc1` [TP-020n]: in experiment [9], the % of control was found to be 100%.
In the case of `N#Cc1cccc(-c2c[nH]c3ncnc(N4CCOCC4)c23)c1`, the % of control came out at 54% in [10] and 100% in experiment [11].
As for `CC[C@@H]1[C@H](F)C(=O)N[C@@H]1COc1nccc2cc(C(N)=O)c(OC)cc12` [ZIMLOVISERTIB], the % of inhibition is -12.7% in experiment [12] (at 0.01 µM); -16.1% in experiment [12] (at 0.04 µM); -5.4% in [12] (at 0.2 µM); -3.3% in experiment [12] (at 1 µM); -18.6% in [12] (at 5 µM).
Molecule `CCN(CC)CCCCNc1ncc2cc(-c3cc(OC)cc(OC)c3)c(NC(=O)NC(C)(C)C)nc2n1` registered a % of control in [13] of 100%.
As to `C=CC(=O)Nc1cc(-n2c(=O)ccc3cnc4ccc(-c5ccc(NS(C)(=O)=O)cc5)cc4c32)ccc1C`, the % of control in [14] (at 1 µM) came to 92%; in experiment [14] (at 10 µM) it was 100%.
In the case of `O[C@H]1CC[C@H](Nc2ncc3nc(Nc4c(F)cc(F)cc4F)n([C@H]4CCOC4)c3n2)CC1`, the figures for the % of control in experiment [15] and in experiment [16] were 49% and 100%, respectively.
In experiment [17], `COCC(=O)NC/C=C/c1ccc2ncnc(Nc3ccc(Oc4ccc(C)nc4)c(C)c3)c2c1` [CP-724714] had a % of control of 100%.
